Reference: US4405743A, “Pyrazolylpyrimidine derivatives” (Hokko Chemical Industry Co., Ltd., priority 1981, dated 1983)
Where two headings read alike, the source gives them in different places.

What was measured:
Pyricularia oryzae [1] = format: in vivo, Pyricularia oryzae on rice plant (variety: Asahi); conditions: rice blast, prevention; 200 ppm; 5 days after inoculation
Pyricularia oryzae [2] = format: in vivo, Pyricularia oryzae on rice plant (variety: Asahi); conditions: rice blast, curative treatment; sprayed liquid 200 ppm; 5 days after spraying
Cochliobolus miyabeanus = assay: Effect of controlling rice brown spot, Experimental Example 3; format: in vivo, Cochliobolus miyabeanus on rice plant (variety: Asahi); conditions: sprayed liquid 500 ppm, 5 days after inoculation
Sphaerotheca friliginea = assay: Effect of controlling cucumber powdery mildew, Experimental Example 4; format: in vivo; conditions: sprayed liquid 200 ppm, 10 days after inoculation
Experimental: 10 ml of each of test liquids diluted to a predetermined concentration was sprayed over seedlings of a cucumber plant (variety: Sagami Hanpaku) grown up to the first leaf stage which has been soil cultured in an unglazed pot with a diameter of 9 cm in a green house. After allowing to stand overnight, the seedlings were sprayed for inoculation with a spore suspension of Sphaerotheca friliginea. Ten days after the inoculation, the rate of a lesion area (%) was checked and a control value was evaluated from the following equation. The degree of chemical injury against a cucumber plant was determined in the same manner as in Experimental Example.

rice plant [3] = conditions: blast prevention test, 200 ppm
rice plant [4] = conditions: blast curative test, 200 ppm
rice plant [5] = conditions: in vivo
cucumber plant = conditions: in vivo

| SMILES | Control Value (Pyricularia oryzae [1]) | Control Value (Pyricularia oryzae [2]) | Control Value (Cochliobolus miyabeanus) | Control Value (Sphaerotheca friliginea) | Degree of chemical injury (rice plant [3]) | Degree of chemical injury (rice plant [4]) | Degree of chemical injury (rice plant [5]) | Degree of chemical injury (cucumber plant) |
| --- | --- | --- | --- | --- | --- | --- | --- | --- |
| CCCCc1c(C)nc(-n2nc(C)cc2C)nc1Oc1ccccc1 [Compound 43] | 100% | 86% | 94% | 82% | 0 | 0 | 0 | 0 |
| COc1ccc(Oc2cc(C)nc(-n3nc(C)cc3C)n2)cc1 [Compound 17] | 100% | 100% | 100% | 100% | 0 | 0 | 0 | 0 |
| Cc1cc(Oc2ccc(Cl)cc2Cl)nc(-n2nc(C)cc2C)n1 [Compound 23] | 100% | 86% | 84% | 82% | 0 | 0 | 0 | 0 |
| Cc1cc(Sc2ccc(Cl)cc2)nc(-n2nc(C)cc2C)n1 [Compound 5] | 100% | 100% | 100% | 85% | 0 | 0 | 0 | 0 |
| Cc1ccc(C)c(Oc2cc(C)nc(-n3nc(C)cc3C)n2)c1 [Compound 28] | 100% | 98% | 100% | 100% | 0 | 0 | 0 | 0 |
| Cc1cc(C)c(C)c(Oc2cc(C)nc(-n3nc(C)cc3C)n2)c1 [Compound 30] | 100% | 100% | 87% | 92% | 0 | 0 | 0 | 0 |
| Cc1cccc(Oc2cc(C)nc(-n3nc(C)cc3C)n2)c1 [Compound 12] | 100% | 100% | 100% | 100% | 0 | 0 | 0 | 0 |
| CCCCCCc1cc(SCC)nc(-n2nc(C)cc2C)n1 [Compound 45] | 92% | 90% | 88% | 91% | 0 | 0 | 0 | 0 |
| Cc1cc(Oc2ccc(C(C)(C)C)cc2)nc(-n2nc(C)cc2C)n1 [Compound 15] | 100% | 100% | 81% | 91% | 0 | 0 | 0 | 0 |
| Cc1cc(Oc2cccc(Cl)c2)nc(-n2nc(C)cc2C)n1 [Compound 7] | 100% | 100% | 100% | 100% | 0 | 0 | 0 | 0 |
| Cc1ccc(Oc2cc(C)nc(-n3nc(C)cc3C)n2)cc1 [Compound 13] | 100% | 100% | 100% | 100% | 0 | 0 | 0 | 0 |
| Cc1cc(C)n(-c2nc(C)c(C)c(Sc3ccccc3)n2)n1 [Compound 39] | 100% | 100% | 78% | 100% | 0 | 0 | 0 | 0 |
| Cc1cc(C)cc(Oc2cc(C)nc(-n3nc(C)cc3C)n2)c1 [Compound 29] | 100% | 100% | 100% | 100% | 0 | 0 | 0 | 0 |
| CCCCCCc1cc(Oc2ccc(Cl)cc2)nc(-n2nc(C)cc2C)n1 [Compound 47] | 100% | 100% | 90% | 79% | 0 | 0 | 0 | 0 |
| CCSc1ccnc(-n2nc(C)cc2C)n1 [Compound 2] | 100% | 100% | 94% | 88% | 0 | 0 | 0 | 0 |
